Laboratory results from US10849907B2, “Imidazopyridine derivatives and the use thereof as medicament” (Boehringer Ingelheim International GmbH, priority 2017, dated 2020).

How the values were obtained:
[1] = target: T1, human BCRP (Homo sapiens, UniProt Q9UNQ0); assay: MDCK assay BCRP: permeability across MDCK-BCRP monolayers; format: in vitro ADME; conditions: for Papp A→B: MDCK-BCRP monolayers, apical-to-basal, pH 7.4, 1 or 10 μM; for efflux ratio: pH 7.4, MDCK-BCRP, Papp (b-a) divided by Papp (a-b)
T1 construct: expressed in transfected cells; host or cells: MDCKII (Madin-Darby canine kidney) cells
T1 sequence (Q9UNQ0 1-655): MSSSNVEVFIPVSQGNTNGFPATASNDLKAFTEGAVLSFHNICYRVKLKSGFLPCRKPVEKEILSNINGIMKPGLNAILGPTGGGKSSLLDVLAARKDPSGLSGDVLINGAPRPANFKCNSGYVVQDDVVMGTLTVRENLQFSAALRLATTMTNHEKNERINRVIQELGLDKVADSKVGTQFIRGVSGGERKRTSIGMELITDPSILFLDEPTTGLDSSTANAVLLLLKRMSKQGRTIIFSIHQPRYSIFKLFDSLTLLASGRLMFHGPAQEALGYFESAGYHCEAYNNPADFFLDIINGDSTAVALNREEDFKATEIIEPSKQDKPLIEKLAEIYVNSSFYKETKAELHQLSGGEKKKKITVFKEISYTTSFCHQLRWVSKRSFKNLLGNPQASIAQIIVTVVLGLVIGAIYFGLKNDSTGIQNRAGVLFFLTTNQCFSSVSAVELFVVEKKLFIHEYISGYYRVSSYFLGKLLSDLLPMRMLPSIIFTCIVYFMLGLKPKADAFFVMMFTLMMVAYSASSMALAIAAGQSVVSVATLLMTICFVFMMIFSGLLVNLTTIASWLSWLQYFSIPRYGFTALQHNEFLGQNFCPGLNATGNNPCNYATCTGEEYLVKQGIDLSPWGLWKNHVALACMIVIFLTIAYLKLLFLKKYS
Description: (§1) The MDCK assays provide information on the potential of a compound to pass the blood brain barrier. Permeability measurements across polarized, confluent MDCK-MDR1 cell monolayers grown on permeable filter supports are used as an in vitro absorption model: apparent permeability coefficients (PE) of the compounds across the MDCK-MDR1 cell monolayers are measured (pH 7.4, 37° C.) in apical-to-basal (AB) and basal-to-apical (BA) transport direction. The AB permeability (PEAB) represents drug absorption from the blood into the brain and the BA permeability (PEBA) drug efflux from the brain back into the blood via both, passive permeability as well as active transport mechanisms mediated by efflux and uptake transporters that are expressed on the MDCK-MDR1 cells, predominantly by the overexpressed human MDR1. Identical or similar permeabilities in both transport directions indicate passive permeation, vectorial permeability points to additional active transport mechanisms. Higher PEBA than PEAB (PEBA/PEAB >5) indicates the involvement of active efflux mediated by MDR1, which might compromise the goal to achieve sufficient brain exposure. Therefore, this assay provides valuable support for selection of compounds applicable for further in vivo testing. High permeability not limited by efflux at the blood brain barrier is a favourable characteristic for compounds that are to be used for drugs acting primarily in the CNS. Similar concepts are applicable to the MDCK BCRP assay and its interpretation; consequently, to ensure high permeability at the blood brain barrier, it is highly preferred to minimize the efflux (efflux <5) at both MDR1 and BCRP transporters.
(§2) Apparent permeability coefficients (Papp) of the compounds across the MDCK-BCRP monolayers (MDCKII cells transfected with human BCRP cDNA expression plasmid) are measured in apical-to-basal (AB) and basal-to-apical (BA) direction. MDCK-BCRP cells (6×10^5 cells/cm^2) are seeded on filter inserts (Corning, Transwell, polycarbonate, 0.4 μm pore size) and cultured for 9 to 10 days. Compounds dissolved in DMSO stock solution (1-20 mM) are diluted with HTP-4 aqueous buffer (128.13 mM NaCl, 5.36 mM KCl, 1 mM MgSO4, 1.8 mM CaCl2, 4.17 mM NaHCO3, 1.19 mM Na2HPO4, 0.41 mM NaH2PO4, 15 mM HEPES, 20 mM glucose, pH 7.4) supplemented with 0.25% BSA to prepare the transport solutions (final concentration: 1 or 10 μM, final DMSO <=0.5%). The transport solution is applied to the apical or basolateral donor side for measuring A-B or B-A permeability, respectively. The receiver side contains HTP-4 buffer supplemented with 0.25% BSA. Samples are collected at the start and end of experiment from the donor and at various time intervals for up to 2 hours also from the receiver side for concentration measurement by HPLC-MS/MS. Sampled receiver volumes are replaced with fresh receiver solution. Efflux ratio is calculated dividing the Papp (b-a) values by the Papp (a-b) values.

[2] = target: T2, human MDR1 (P-gp) (Homo sapiens, UniProt P08183); assay: MDCK assay MDR-1 (p-GP): permeability across MDCK-MDR1 monolayers; format: in vitro ADME; conditions: for Papp A→B: MDCK-MDR1 monolayers, apical-to-basal, pH 7.4, 1 or 10 μM; for efflux ratio: pH 7.4, MDCK-MDR1, Papp (b-a) divided by Papp (a-b)
T2 construct: expressed in transfected cells; host or cells: MDCKII (Madin-Darby canine kidney) cells
Description: as §1
Apparent permeability coefficients (Papp) of the compounds across the MDCK-MDR1 monolayers (MDCKII cells transfected with human MDR1 cDNA expression plasmid) are measured in apical-to-basal (AB) and basal-to-apical (BA) direction.
as §2, with “MDCK-MDR1” for “Apparent permeability coefficients (Papp) of the compounds across the MDCK-BCRP monolayers (MDCKII cells transfected with human BCRP cDNA expression plasmid) are measured in apical-to-basal (AB) and basal-to-apical (BA) direction. MDCK-BCRP”

T2 sequence (P08183 whole entry): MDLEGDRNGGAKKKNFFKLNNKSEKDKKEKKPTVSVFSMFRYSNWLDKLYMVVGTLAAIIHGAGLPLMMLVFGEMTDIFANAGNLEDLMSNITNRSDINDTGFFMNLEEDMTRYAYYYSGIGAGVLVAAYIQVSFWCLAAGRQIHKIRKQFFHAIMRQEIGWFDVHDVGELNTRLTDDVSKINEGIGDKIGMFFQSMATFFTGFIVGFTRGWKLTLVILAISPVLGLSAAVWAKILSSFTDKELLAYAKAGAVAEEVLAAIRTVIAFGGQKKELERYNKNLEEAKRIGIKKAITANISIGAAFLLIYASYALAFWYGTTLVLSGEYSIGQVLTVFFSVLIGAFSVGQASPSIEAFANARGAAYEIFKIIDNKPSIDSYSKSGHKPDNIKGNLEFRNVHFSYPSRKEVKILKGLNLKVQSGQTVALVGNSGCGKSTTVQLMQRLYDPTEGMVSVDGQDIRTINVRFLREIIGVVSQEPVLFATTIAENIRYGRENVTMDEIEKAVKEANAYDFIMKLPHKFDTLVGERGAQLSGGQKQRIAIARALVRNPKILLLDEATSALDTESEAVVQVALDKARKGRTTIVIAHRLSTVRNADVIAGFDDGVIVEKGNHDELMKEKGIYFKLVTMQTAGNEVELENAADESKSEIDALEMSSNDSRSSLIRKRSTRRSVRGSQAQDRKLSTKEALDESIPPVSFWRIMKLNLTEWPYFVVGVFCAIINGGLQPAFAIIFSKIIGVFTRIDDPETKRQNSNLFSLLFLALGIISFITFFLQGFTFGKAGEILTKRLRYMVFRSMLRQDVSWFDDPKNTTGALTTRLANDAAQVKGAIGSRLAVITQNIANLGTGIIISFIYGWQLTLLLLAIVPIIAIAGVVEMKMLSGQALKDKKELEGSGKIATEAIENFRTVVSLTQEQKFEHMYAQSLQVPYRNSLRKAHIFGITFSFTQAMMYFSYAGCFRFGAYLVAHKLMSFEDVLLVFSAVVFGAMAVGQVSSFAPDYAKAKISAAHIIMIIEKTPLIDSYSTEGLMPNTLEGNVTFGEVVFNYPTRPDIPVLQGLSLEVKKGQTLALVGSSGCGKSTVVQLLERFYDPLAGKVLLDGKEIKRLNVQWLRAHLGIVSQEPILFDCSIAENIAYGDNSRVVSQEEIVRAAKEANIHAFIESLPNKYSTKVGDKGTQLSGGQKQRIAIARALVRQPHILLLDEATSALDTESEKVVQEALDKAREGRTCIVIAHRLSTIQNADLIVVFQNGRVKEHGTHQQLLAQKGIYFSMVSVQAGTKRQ

| SMILES | Papp A→B [1] | efflux ratio [1] | Papp A→B [2] | efflux ratio [2] |
| --- | --- | --- | --- | --- |
| O=C(OCc1ccc(F)cc1)N1CCO[C@H](c2nc3cccnc3[nH]2)C1 [Example 2] | 34 ×10⁻⁶ cm/s | 2.9 | 31.5 ×10⁻⁶ cm/s | 1.7 |
| Cc1ccccc1COC(=O)N1CCO[C@H](c2nc3cccnc3[nH]2)C1 [Example 8] | 46 ×10⁻⁶ cm/s | 1.8 | 39 ×10⁻⁶ cm/s | 1.6 |
| Cc1ccc(COC(=O)N2CCO[C@H](c3nc4cccnc4[nH]3)C2)c(F)c1 [Example 11] | 63 ×10⁻⁶ cm/s | 1 | 32 ×10⁻⁶ cm/s | 1.4 |
| O=C(OCc1ccc(F)cc1Cl)N1CCO[C@H](c2nc3cccnc3[nH]2)C1 [Example 13] | 72 ×10⁻⁶ cm/s | 0.9 | 35 ×10⁻⁶ cm/s | 1.3 |
| O=C(OCc1ccccc1Cl)N1CCO[C@H](c2nc3cccnc3[nH]2)C1 [Example 14] | 68 ×10⁻⁶ cm/s | 1.2 | 38 ×10⁻⁶ cm/s | 1.1 |
| O=C(OCc1c(F)cccc1F)N1CCO[C@H](c2nc3cccnc3[nH]2)C1 [Example 16] | 49 ×10⁻⁶ cm/s | 2.1 | 41 ×10⁻⁶ cm/s | 1.2 |
| O=C(OCc1ccc(C(F)F)cc1)N1CCO[C@H](c2nc3cccnc3[nH]2)C1 [Example 26] | 24 ×10⁻⁶ cm/s | 2.7 | 32 ×10⁻⁶ cm/s | 2 |
| Cc1ccc(COC(=O)N2CCO[C@H](c3nc4cc(F)cnc4[nH]3)C2)cc1 [Example 31] | 85 ×10⁻⁶ cm/s | 0.7 | 18 ×10⁻⁶ cm/s | 1.8 |

Continued, values first:

| Papp A→B [1] | efflux ratio [1] | Papp A→B [2] | efflux ratio [2] | SMILES |
| --- | --- | --- | --- | --- |
| 38 ×10⁻⁶ cm/s | 2.4 | 61 ×10⁻⁶ cm/s | 0.9 | O=C(OCc1cccc(F)c1)N1CCO[C@H](c2nc3cccnc3[nH]2)C1 [Example 1] |
| 40 ×10⁻⁶ cm/s | 2.2 | 37 ×10⁻⁶ cm/s | 1.6 | Cc1cccc(F)c1COC(=O)N1CCO[C@H](c2nc3cccnc3[nH]2)C1 [Example 10] |
| 69 ×10⁻⁶ cm/s | 1 | 46 ×10⁻⁶ cm/s | 0.9 | Cc1ccc(COC(=O)N2CCO[C@H](c3nc4cccnc4[nH]3)C2)cc1F [Example 12] |
| 33 ×10⁻⁶ cm/s | 2.8 | 59 ×10⁻⁶ cm/s | 1.2 | O=C(OCc1cccc(F)c1F)N1CCO[C@H](c2nc3cccnc3[nH]2)C1 [Example 15] |
| 37 ×10⁻⁶ cm/s | 2.5 | 40 ×10⁻⁶ cm/s | 1.3 | O=C(OCc1ccccc1)N1CCO[C@H](c2nc3cccnc3[nH]2)C1 [Example 17] |
| 53 ×10⁻⁶ cm/s | 1.2 | 37 ×10⁻⁶ cm/s | 1.3 | Cc1ccc(COC(=O)N2CCO[C@H](c3nc4cccnc4[nH]3)C2)cc1 [Example 18] |
| 61 ×10⁻⁶ cm/s | 1.6 | 42 ×10⁻⁶ cm/s | 1.6 | O=C(OCc1ccc(F)cc1F)N1CCO[C@H](c2nc3cccnc3[nH]2)C1 [Example 19] |
| 24 ×10⁻⁶ cm/s | 5.2 | 65 ×10⁻⁶ cm/s | 1.2 | O=C(OCc1ccccc1F)N1CCO[C@H](c2nc3cccnc3[nH]2)C1 [Example 27] |
| 56 ×10⁻⁶ cm/s | 1.2 | 42 ×10⁻⁶ cm/s | 1.1 | O=C(OCc1ccc(Cl)cc1)N1CCO[C@H](c2nc3cccnc3[nH]2)C1 [Example 28] |
